Ends that are not written are not given here. Where only a bound is given, the exact number is not on record here.

In one series the test system is S. mutans KCCM40105. In words: Ultrasensitive radial diffusion assay (URDA), antimicrobial activity. To be noted: S. mutans KCCM40105, Gram +. Type of series: cell-based, Streptococcus mutans. How it is done: (§1) Four species of Gram positive bacteria (Bacillus subtilis, Staphylococcus epidermidis, […] and Propionibacterium acnes), five species of Gram negative bacteria (E. coli D31, E. coli ML35p, Shigella flexneri, Pseudomonas aeruginosa and Vibrio parahaemolyticus) and one yeast species (Candida albicans) were used for experiments. The antimicrobial activity was measured by ultrasensitive radial diffusion assay (URDA) using two layers of media of different concentrations. First, the microorganisms were pre-cultured in each medium for 18 hours and the concentration of the microorganisms was adjusted to 84% T (≈1×10^8 CFU/mL) using a colorimeter (Product No. 52-1210, BioMerieux, Inc., USA). Then, 0.5 mL of the diluted microorganism solution was added to an underlay gel containing 9.5 mL of 0.03% TSB, 1% type I agarose and 10 mM phosphate buffer (PB; pH 6.5) and plated and solidified on a plate after mixing well. After boring a well with a diameter of 2.5 mm on the solidified plate using a punch, 5 μL of each analogue solution was introduced. All the analogues were dissolved in 5 μL of 0.01% acetic acid to avoid any effect of solvent. After the analogue permeated into the medium, the microorganisms were cultured for 3 hours and an overlay gel containing 10 mL of 6% TSB, 1% type I agarose and 10 mM phosphate buffer (pH 6.5) was poured and solidified. Then, the microorganisms were cultured again for 18 hours at the same temperature. Next day, the antimicrobial activity was determined by measuring the size (diameter) of a clear zone formed around the well. Piscidin 1, an antimicrobial peptide derived from the mast cells of a hybrid striped bass, was used as a control.

Another series relates to S. epidermidis KCTC1917. Described as above. The conditions noted are these: S. epidermidis KCTC1917, Gram +. Type of series: cell-based, Staphylococcus epidermidis. How it is done:
as §1

Another series concerns P. aeruginosa KCTC2004. Described as above. The format is cell-based, Pseudomonas aeruginosa. The conditions noted are these: P. aeruginosa KCTC2004, Gram −. How it is done: as §1
In series [1] the test system is E. coli ML35p. The series is described as above. Type of series: cell-based. To be noted: Gram −. How it is done: as §1
In series [2] the test system is Vibrio parahaemolyticus KCCM42264. Described as above. The format is cell-based. The method, then: as §1
The subject of a further series is E. coli D31. The description is as above. To be noted: E. coli D31, Gram −. The format is cell-based. How it is done:
as §1

For series [3], the system named is Propionibacterium acnes KCTC11946. The series is described as above. The format is cell-based. The conditions noted are these: Propionibacterium acnes KCTC11946, Gram +. How it is done: as §1
For series [4], the system named is Shigella flexneri KCTC2009. The series is described as above. The format is cell-based. The conditions noted are these: Shigella flexneri KCTC2009, Gram −. The method, then:
as §1

For another series, the system named is C. albicans. The series is described as above. The format is cell-based, Candida albicans. The method, then: as §1
Another series deals with B. subtilis KCTC1021. The series is described as above. The format is cell-based, Bacillus subtilis. The conditions noted are these: B. subtilis KCTC1021, Gram +. The method, then: as §1
The test system of series [5] is E. coli ML35p. In words: Chromogenic bacteriolytic plate assay. The format is cell-based. To be noted: E. coli ML35p (FIG. 6). How it is done: In order to investigate the lytic activity of the analogues for bacterial membrane, chromogenic bacteriolytic plate assay was conducted using E. coli ML35p containing a chromosomal IPTG-inducible β-galactosidase gene (Mardones, G., Venegas, A. Chromogenic plate assay distinguishing bacteriolytic from bacteriostatic activity of an antibiotic agent. J Microbiol Methods. 2000, 40(3), 199-206). After inoculating 2 mL of E. coli ML35p to TSB and culturing at 37° C. for 16-18 hours, a mixture of 50 μL of the cultured microorganism solution, 10 μL of 1 mM IPTG and 50 μL of 50 mg/mL X-gal was poured onto TSB containing 0.8% agarose at 42° C. the next day. After boring a well on the solidified plate, 5 μL of each peptide analogue solution was introduced and incubation was conducted for 3 hours. Then, after pouring 2×TSB containing 10 mL of 1.5% agarose to the plate and solidifying, incubation was conducted again for 16-18 hours. After the incubation, the size (diameter) of a clearing zone and the presence or absence of a blue line at the edge portion were investigated.

The test system of a further series is human red blood cells. Type of series: cell-based. How it is done:
Hemolytic activity was measured using human red blood cells. After adding to human blood an equal amount of phosphate buffered saline (PBS, 50 mM sodium phosphate, 150 mM NaCl, pH 7.4), mixing and centrifuging at 8000×g and 4° C. for 1 minute, the supernatant was removed and the remaining red blood cells were washed 3 times. The red blood cells were added to PBS to a concentration of 3% hematocrit. In order to measure the hemolytic activity, 90 μL of the 3% hematocrit was introduced to an e-tube and then 10 μL of each analogue solution (×10) was added. After incubation of each e-tube at 37° C. for 1 hour, centrifugation was performed at 13,000×g and 4° C. for 10 minutes. After taking 70 μL from each supernatant and transferring to a 96-well microtiter plate, release of hemoglobin was measured at 405 nm. Triton X-100 (0.1%) was used as a control group for 100% lysis of red blood cells and the hemolytic activity was calculated according to the following equation. % Hemolysis=[(Abs 405 nm in the peptide solution−Abs 405 nm in buffer)/(Abs 405 nm in 0.1% Triton X-100−Abs 405 nm in buffer)]×100

Where [6] appears, read: C. albicans KCCM42264 (as printed in Table 2), yeast.

Regarding “KLLLKLLKKLL-NH2 [SEQ ID NO 8, KLLLKLLKKLL]”, the Minimal effective concentration with S. mutans KCCM40105 was 7.4 µg/mL; with S. epidermidis KCTC1917 it was 9.6 µg/mL; with P. aeruginosa KCTC2004 it was 12.5 µg/mL; in the series with E. coli ML35p [1] it was 9.8 µg/mL; in [2], 7.1 µg/mL; in the series with E. coli D31 it was 14.2 µg/mL. For the same molecule, the Minimal effective concentration in series [3] was found to be 12.3 µg/mL; in [4] it was 10.7 µg/mL; in the series on C. albicans (C. albicans KCTC7965, yeast), 11.8 µg/mL; with B. subtilis KCTC1021 it was 10.3 µg/mL.

Consider “KLLLKLLKLL-NH2 [SEQ ID NO 7, KLLLKLLKLL]”, for which the Minimal effective concentration in the series on S. mutans KCCM40105 turned out to be 7.8 µg/mL; in the series with S. epidermidis KCTC1917 it was 8.8 µg/mL; in the series on P. aeruginosa KCTC2004, 11.2 µg/mL; in the series on E. coli ML35p [1], 8.8 µg/mL; in series [2], 6.8 µg/mL; in the series on E. coli D31 it was 13.2 µg/mL. Moreover, the Minimal effective concentration in [3] worked out at 11.9 µg/mL; in series [4], 10.4 µg/mL; with C. albicans (C. albicans KCTC7965, yeast) it was 12.1 µg/mL; with B. subtilis KCTC1021, 11.2 µg/mL.

Regarding “KLLKKLLKLL-NH2 [SEQ ID NO 9, KLLKKLLKLL]”, the Minimal effective concentration came to 9.0 µg/mL in the series with S. mutans KCCM40105; 14.0 µg/mL in the series on S. epidermidis KCTC1917; 17.8 µg/mL with P. aeruginosa KCTC2004; 17.2 µg/mL with E. coli ML35p [1]; 9.5 µg/mL in [2]; 18.9 µg/mL in the series on E. coli D31. The Minimal effective concentration in series [3] amounted to 18.5 µg/mL; in series [4] it was 15.4 µg/mL; in the series on C. albicans (C. albicans KCTC7965, yeast), 14.0 µg/mL; in the series on B. subtilis KCTC1021, 15.7 µg/mL.

As for “KAAAKAAKAA-NH2 (C-terminus assumed) [SEQ ID NO 6, KAAAKAAKAA]”, the Minimal effective concentration (in the series on S. mutans KCCM40105; in the series on S. epidermidis KCTC1917; with P. aeruginosa KCTC2004; with E. coli ML35p [1]; in series [2]; with E. coli D31) was over 50.0 µg/mL throughout. Besides, the Minimal effective concentration is over 50.0 µg/mL in series [3]; over 50.0 µg/mL in [4]; over 50.0 µg/mL with C. albicans (C. albicans KCTC7965, yeast); over 50.0 µg/mL with B. subtilis KCTC1021.

“LLWKLLKKLLK-NH2 [SEQ ID NO 3, LLWKLLKKLLK]”: the Minimal effective concentration with S. mutans KCCM40105 came out at 15.8 µg/mL; in the series on S. epidermidis KCTC1917, 17.2 µg/mL; in the series with P. aeruginosa KCTC2004 it was 15.2 µg/mL; with E. coli ML35p [1], 13.8 µg/mL; in series [2], 9.1 µg/mL; with E. coli D31, 19.4 µg/mL. Besides, the Minimal effective concentration in series [3] is 14.5 µg/mL; in [4], 10.0 µg/mL; with C. albicans (setting [6]), 15.0 µg/mL; in the series on B. subtilis KCTC1021 it was 14.0 µg/mL.

For “AAWKLLKALAKA-NH2 [SEQ ID NO 1, AAWKLLKALAKA]”, the Minimal effective concentration in the series on S. mutans KCCM40105 came to 20.3 µg/mL; in the series with S. epidermidis KCTC1917, 17.3 µg/mL; in the series with P. aeruginosa KCTC2004, 36.0 µg/mL; in the series on E. coli ML35p [1] it was 23.0 µg/mL; in [2] it was 26.3 µg/mL; with E. coli D31, 22.0 µg/mL. Also, the Minimal effective concentration in series [3] came to 25.0 µg/mL; in [4], 28.0 µg/mL; in the series with C. albicans (setting [6]), 42.0 µg/mL; with B. subtilis KCTC1021, 20.0 µg/mL.

In the case of `[H]/N=C(/N)N[C@H]1[C@H](O)[C@@H](O)[C@H](O[C@@H]2O[C@@H](C)[C@](O)(C=O)[C@H]2O[C@@H]2O[C@@H](CO)[C@H](O)[C@@H](O)[C@@H]2NC)[C@@H](N/C(N)=N\[H])[C@@H]1O` [streptomycin], the “bacteriolytic activity: blue line at the edge portion of the clearing zone” value in the series on E. coli ML35p [5] is “showed a blue line at the edge portion”.

As to “LKWLLKLLKLK-NH2 [SEQ ID NO 11, LKWLLKLLKLK]”, the Minimal effective concentration was 12.0 µg/mL in the series with S. mutans KCCM40105; 16.0 µg/mL with S. epidermidis KCTC1917; 8.7 µg/mL in the series on P. aeruginosa KCTC2004; 15.0 µg/mL in the series with E. coli ML35p [1]; 9.0 µg/mL in [2]; 14.1 µg/mL in the series on E. coli D31. Also, the Minimal effective concentration in series [3] worked out at 13.1 µg/mL; in [4], 11.2 µg/mL; in the series on C. albicans (C. albicans KCTC7965, yeast), 10.0 µg/mL; in the series with B. subtilis KCTC1021, 12.1 µg/mL.

KWLLKLLKKL [SEQ ID NO 10, KWLLKLLKKL]: the “hemolytic activity (in words, FIG. 4)” value in the series on human red blood cells is “good hemolytic activity”.

Turning to “LLWKLLKLLLK-NH2 [SEQ ID NO 2, LLWKLLKLLLK]”, the Minimal effective concentration in the series on S. mutans KCCM40105 turned out to be 16.3 µg/mL; with S. epidermidis KCTC1917, 18.4 µg/mL; in the series on P. aeruginosa KCTC2004, 14.2 µg/mL; in the series on E. coli ML35p [1], 12.1 µg/mL; in [2], 14.0 µg/mL; in the series with E. coli D31, 16.2 µg/mL. In addition, the Minimal effective concentration stood at 18.0 µg/mL in series [3], 11.6 µg/mL in series [4], 17.0 µg/mL in the series on C. albicans (setting [6]) and 16.0 µg/mL in the series on B. subtilis KCTC1021.

Take “KLALKLLKLL-NH2 [SEQ ID NO 5, KLALKLLKLL]”: the Minimal effective concentration with S. mutans KCCM40105 was 10.5 µg/mL; with S. epidermidis KCTC1917 it was 16.4 µg/mL; in the series with P. aeruginosa KCTC2004, 19.9 µg/mL; in series [2], 8.1 µg/mL; with E. coli D31, 17.5 µg/mL; in [3], 16.6 µg/mL. Moreover, the Minimal effective concentration amounted to 17.9 µg/mL in series [4]; 14.4 µg/mL with C. albicans (C. albicans KCTC7965, yeast); 15.2 µg/mL in the series with B. subtilis KCTC1021.

Consider LLWKLLKKL [SEQ ID NO 4, LLWKLLKKL], for which the “hemolytic activity (in words, FIG. 4)” value in the series with human red blood cells is listed as “good hemolytic activity”.

The record behind these values is patent publication US10077293B2, “Antimicrobial peptide analogues derived from abalone (Haliotis discus) and antimicrobial pharmaceutical composition containing the same” (priority 2016, dated 2018).
